According to ChEMBL document CHEMBL3885881, “DrugMatrix”:

Species on record: Rattus norvegicus
Assay: DrugMatrix - Regimen: Daily Repeat
Format: toxicity, organism-based, Sprague-Dawley
Set-up: regimen Daily Repeat, gender Male, age 6-8 weeks
Details: in vivo, iv, vehicle 100 % SALINE; for ABSOLUTE BASOPHIL / ABSOLUTE EOSINOPHIL / ABSOLUTE LYMPHOCYTE / ABSOLUTE MONOCYTE / ABSOLUTE SEGMENTED NEUTROPHIL / BASOPHIL / EOSINOPHIL / ERYTHROCYTE COUNT / HEMATOCRIT / HEMOGLOBIN / LEUKOCYTE COUNT / LYMPHOCYTE / MEAN CORPUSCULAR HEMOGLOBIN / MEAN CORPUSCULAR HEMOGLOBIN CONCENTRATION / MEAN CORPUSCULAR VOLUME / MONOCYTE / NEUTROPHIL / NUCLEATED RED BLOOD CELLS / PLATELET COUNT: tissue Blood; for ALANINE AMINOTRANSFERASE / ALBUMIN / ALKALINE PHOSPHATASE / ASPARTATE AMINOTRANSFERASE / BLOOD UREA NITROGEN / CARBON DIOXIDE / CHLORIDE / CHOLESTEROL / CREATINE PHOSPHOKINASE / CREATININE / GLUCOSE / LACTATE DEHYDROGENASE / LIPASE / PHOSPHORUS / POTASSIUM / SODIUM / TOTAL BILIRUBIN / TOTAL PROTEIN / URIC ACID: tissue Plasma
[1] = 0 mg/kg, 72 h, dose level Control, time 3 day
[2] = 0 mg/kg, 120 h, dose level Control, time 5 day
[3] = 3 mg/kg, 72 h, dose level Low, time 3 day

## O=c1[nH]c(=O)n([C@H]2C[C@H](O)[C@@H](CO)O2)cc1F [FLOXURIDINE]
[1]
  ABSOLUTE BASOPHIL: 0 CELLS/uL
  ABSOLUTE EOSINOPHIL: 0 CELLS/uL
  ABSOLUTE LYMPHOCYTE: 11636.83 CELLS/uL
  ABSOLUTE MONOCYTE: 159 CELLS/uL
  ABSOLUTE SEGMENTED NEUTROPHIL: 1170.83 CELLS/uL
  BASOPHIL: 0%
  EOSINOPHIL: 0%
  ERYTHROCYTE COUNT: 5.46 x10E6/uL
  HEMATOCRIT: 34.05%
  HEMOGLOBIN: 13.58 G/DL
  LEUKOCYTE COUNT: 12.97 x10E3/uL
  LYMPHOCYTE: 89.67%
  MEAN CORPUSCULAR HEMOGLOBIN: 24.87 pg
  MEAN CORPUSCULAR HEMOGLOBIN CONCENTRATION: 39.9 G/DL
  MEAN CORPUSCULAR VOLUME: 62.3 fL
  MONOCYTE: 1.33%
  NEUTROPHIL: 9%
  NUCLEATED RED BLOOD CELLS: 0.17 /100WBC
  PLATELET COUNT: 824 x10E3/uL
  ALANINE AMINOTRANSFERASE: 64.83 u/L
  ALBUMIN: 4.08 G/DL
  ALKALINE PHOSPHATASE: 421 u/L
  ASPARTATE AMINOTRANSFERASE: 116.83 u/L
  BLOOD UREA NITROGEN: 16.83 mg/dL
  CARBON DIOXIDE: 28 mmol/L
  CHLORIDE: 101.33 MEQ/L
  CHOLESTEROL: 74.17 mg/dL
  CREATINE PHOSPHOKINASE: 748.5 u/L
  CREATININE: 0.22 mg/dL
  GLUCOSE: 152.83 mg/dL
  LACTATE DEHYDROGENASE: 578.5 u/L
  LIPASE: 9.83 u/L
  PHOSPHORUS: 11.63 mg/dL
  POTASSIUM: 5.93 MEQ/L
  SODIUM: 142.1 MEQ/L
  TOTAL BILIRUBIN: 0.17 mg/dL
  TOTAL PROTEIN: 5.77 G/DL
  URIC ACID: 1.43 mg/dL
[2]
  ABSOLUTE BASOPHIL: 0 CELLS/uL
  ABSOLUTE EOSINOPHIL: 159.17 CELLS/uL
  ABSOLUTE LYMPHOCYTE: 12267.5 CELLS/uL
  ABSOLUTE MONOCYTE: 30 CELLS/uL
  ABSOLUTE SEGMENTED NEUTROPHIL: 1160 CELLS/uL
  BASOPHIL: 0%
  EOSINOPHIL: 1.17%
  ERYTHROCYTE COUNT: 5.52 x10E6/uL
  HEMATOCRIT: 34.3%
  HEMOGLOBIN: 13.73 G/DL
  LEUKOCYTE COUNT: 13.62 x10E3/uL
  LYMPHOCYTE: 90.5%
  MEAN CORPUSCULAR HEMOGLOBIN: 24.92 pg
  MEAN CORPUSCULAR HEMOGLOBIN CONCENTRATION: 40.07 G/DL
  MEAN CORPUSCULAR VOLUME: 62.17 fL
  MONOCYTE: 0.17%
  NEUTROPHIL: 8.17%
  NUCLEATED RED BLOOD CELLS: 0.17 /100WBC
  PLATELET COUNT: 1261.83 x10E3/uL
  ALANINE AMINOTRANSFERASE: 58.67 u/L
  ALBUMIN: 4.15 G/DL
  ALKALINE PHOSPHATASE: 364.67 u/L
  ASPARTATE AMINOTRANSFERASE: 105.33 u/L
  BLOOD UREA NITROGEN: 17.67 mg/dL
  CARBON DIOXIDE: 26.5 mmol/L
  CHLORIDE: 101.67 MEQ/L
  CHOLESTEROL: 63 mg/dL
  CREATINE PHOSPHOKINASE: 480.67 u/L
  CREATININE: 0.17 mg/dL
  GLUCOSE: 144.67 mg/dL
  LACTATE DEHYDROGENASE: 540.33 u/L
  LIPASE: 10.33 u/L
  PHOSPHORUS: 11.52 mg/dL
  POTASSIUM: 6.12 MEQ/L
  SODIUM: 142.45 MEQ/L
  TOTAL BILIRUBIN: 0.18 mg/dL
  TOTAL PROTEIN: 5.73 G/DL
  URIC ACID: 1.48 mg/dL
[3]
  ABSOLUTE BASOPHIL: 0 CELLS/uL
  ABSOLUTE EOSINOPHIL: 0 CELLS/uL
  ABSOLUTE LYMPHOCYTE: 9392.67 CELLS/uL
  ABSOLUTE MONOCYTE: 101.67 CELLS/uL
  ABSOLUTE SEGMENTED NEUTROPHIL: 505.67 CELLS/uL
  BASOPHIL: 0%
  EOSINOPHIL: 0%
  ERYTHROCYTE COUNT: 5.12 x10E6/uL
  HEMATOCRIT: 32.33%
  HEMOGLOBIN: 13.1 G/DL
  LEUKOCYTE COUNT: 10 x10E3/uL
  LYMPHOCYTE: 94%
  MEAN CORPUSCULAR HEMOGLOBIN: 25.7 pg
  MEAN CORPUSCULAR HEMOGLOBIN CONCENTRATION: 40.53 G/DL
  MEAN CORPUSCULAR VOLUME: 63.17 fL
  MONOCYTE: 1%
  NEUTROPHIL: 5%
  NUCLEATED RED BLOOD CELLS: 0 /100WBC
  PLATELET COUNT: 833.67 x10E3/uL
  ALANINE AMINOTRANSFERASE: 54.67 u/L
  ALBUMIN: 4.4 G/DL
  ALKALINE PHOSPHATASE: 391.67 u/L
  ASPARTATE AMINOTRANSFERASE: 100 u/L
  BLOOD UREA NITROGEN: 17 mg/dL
  CARBON DIOXIDE: 29.67 mmol/L
  CHLORIDE: 101 MEQ/L
  CHOLESTEROL: 79 mg/dL
  CREATINE PHOSPHOKINASE: 755 u/L
  CREATININE: 0.22 mg/dL
  GLUCOSE: 171 mg/dL
  LACTATE DEHYDROGENASE: 240.33 u/L
  LIPASE: 9 u/L
  PHOSPHORUS: 10.77 mg/dL
  POTASSIUM: 6.26 MEQ/L
  SODIUM: 142.13 MEQ/L
  TOTAL BILIRUBIN: 0.2 mg/dL
  TOTAL PROTEIN: 6.17 G/DL
  URIC ACID: 2.23 mg/dL
